Assay results from patent US8182815B2, “Fibroblast growth factor receptor-3 (FGFR-3) inhibitors and methods of treatment” (ImClone, LLC, priority 2008, dated 2012).

Experiments:
RT4 tumor = test: RT4 xenograft, combination with cisplatin; conditions: Antibody 1 40 mg/kg three times weekly, cisplatin MTD
Protocol: (§1) The therapeutic benefit of combining cisplatin with FGFR-3 antibody in three bladder xenograft models is explored. Develop RT112, RT4 and BFTC905 xenograft tumor models by routine methods in which 1-20 million tumor cells mixed with 0-100% Matrigel are injected subcutaneously to each female athymic nude mouse. Start antibody treatment once the mean volume of the subcutaneous tumors is approximately 400 mm^2. […] Measure tumor volumes 3 times weekly until the end of the studies.
Conduct RM ANOVO statistical test.

RT-112 tumor = test: RT112 xenograft, combination with cisplatin; conditions: Antibody 1 40 mg/kg three times weekly, cisplatin MTD
Protocol: as §1
Conduct RM ANOVO statistical test.

BFTC-905 tumor = test: BFTC905 xenograft, combination with cisplatin; conditions: Antibody 1 40 mg/kg three times weekly, cisplatin MTD
Protocol: as §1
Conduct RM ANOVO statistical test.

[1] = target: T1, FGFR-3 (K650E) in OPM-2 cells (Homo sapiens, UniProt P22607, K650E); test: FGFR-3 receptor degradation in OPM-2 cells (western blot); assay type: cell-based; conditions: 37° C., Antibody 1 30 ug/ml, FGF-1 30 ng/ml
T1 construct: endogenous in cells; host or cells: OPM-2
Protocol: OPM-2 is a cell line originally isolated from cancer cells of multiple myeloma. OPM-2 cells are known to express FGFR-3 receptors harboring a gain-of-function K650E point mutation. Quiesce the OPM-2 cells in low serum culture media (0.1% FBS) for overnight. The next day, divide these cells into 5 groups. Group 1 is lysed immediately, and the lysate is kept at −20° C. until the time of western blot analysis. This group is therefore designated as Time 0 hr sample. Group 2-5 each has 3 samples of equal size, named as Sample A, B and C of Group 2, 3, 4, and 5. Samples A of Group 2-5 are not subjected to any further treatment, but are incubated at 37° C. Samples B of Group 2-5 are treated with 30 ng/ml FGF-1 at 37° C. […] All samples of Group 2 are lysed after 1 hr of treatment, and the lysates are kept at −20° C. until the time of western blot analysis. This group is designated as the Time 1 hr samples. All samples of Group 3 are lysed after 4 hr of treatment, and the lysates are kept at −20° C. until the time of western blot analysis. This group is designated as the Time 4 hr samples. All samples of Group 4 are lysed after 8 hr of treatment, and the lysates are kept at −20° C. until the time of western blot analysis. This group is designated as Time 8 hr samples. All samples of Group 5 are lysed after 24 hr of treatment, and the lysates are kept at −20° C. until the time of western blot analysis. This group is designated as Time 24 hr samples. When all lysates are ready, they are subjected to SDS-PAGE followed by Western Blot experiment. The FGFR-3 signals of Group 1 and all samples of Group 2 are similar. […] In Group 5, the FGFR-3 signal of Sample A is lower than that of group 1; yet signals of Samples B and C are nearly absent.

RT112 cells = test: RT112 cell proliferation assay (3H-thymidine incorporation); assay type: cell-based, human; conditions: 1 nM exogenous FGF-1, 48 hours
Protocol: Quiesce monolayer RT112 cells in low serum culture media (0.1% fetal bovine serum, 5 μg/mL heparin) for 24-72 hrs. Divide cells into 4 samples. Add FBS (Fetal Bovine Serum) to Sample 1 to the final concentration of 10% (V:V). Leave Sample 2 in the starving media. Add FGF-1 to Sample 3 to the final concentration of 1 nM. […] Next, add FGF-1 to the final concentration of 1 nM. After preparing Samples 1-4 as described above, incubate the samples in a tissue culture incubator set at 37° C. and with 5% CO2 (v:v) for 48 hours. Detect cell growth using standard ^3H-thymidine incorporation, assays. Tumor cell growth is doubled when RT112 cells […] are stimulated with 1 nM exogenous FGF-1.

T1 sequence (P22607 23-806 K650E): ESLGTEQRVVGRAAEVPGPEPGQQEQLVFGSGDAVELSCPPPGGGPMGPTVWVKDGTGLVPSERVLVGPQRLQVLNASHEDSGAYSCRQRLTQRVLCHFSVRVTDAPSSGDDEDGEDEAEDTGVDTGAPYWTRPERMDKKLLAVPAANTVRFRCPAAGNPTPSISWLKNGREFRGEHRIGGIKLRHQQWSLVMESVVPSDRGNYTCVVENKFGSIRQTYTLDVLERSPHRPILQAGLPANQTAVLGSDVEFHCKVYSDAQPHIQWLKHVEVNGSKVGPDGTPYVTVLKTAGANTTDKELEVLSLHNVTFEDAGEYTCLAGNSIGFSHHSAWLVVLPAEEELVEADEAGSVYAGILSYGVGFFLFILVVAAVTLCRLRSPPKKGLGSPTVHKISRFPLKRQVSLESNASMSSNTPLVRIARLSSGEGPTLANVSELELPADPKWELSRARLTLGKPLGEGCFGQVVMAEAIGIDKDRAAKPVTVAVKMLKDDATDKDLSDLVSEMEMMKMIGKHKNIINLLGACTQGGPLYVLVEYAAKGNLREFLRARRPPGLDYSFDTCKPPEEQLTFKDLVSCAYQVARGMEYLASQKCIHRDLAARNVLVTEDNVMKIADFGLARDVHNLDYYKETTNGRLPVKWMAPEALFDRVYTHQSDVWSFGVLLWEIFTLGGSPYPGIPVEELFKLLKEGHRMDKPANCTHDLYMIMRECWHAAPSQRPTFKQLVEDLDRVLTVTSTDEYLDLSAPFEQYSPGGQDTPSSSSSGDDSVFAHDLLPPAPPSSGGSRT

Compound: N.N.[Cl][Pt][Cl] [Cisplatin, cisplatin, reference compound]
- RT4 Tumor Volumes, Average (RT4 tumor; Day 1): 195.4 mm^3
- RT4 Tumor Volumes, Average (RT4 tumor; Day 8): 253.4 mm^3
- RT4 Tumor Volumes, Average (RT4 tumor; Day 15): 374.0 mm^3
- RT4 Tumor Volumes, Average (RT4 tumor; Day 22): 511.9 mm^3
- RT4 Tumor Volumes, Average (RT4 tumor; Day 29): 675.8 mm^3
- RT4 Tumor Volumes, Average (RT4 tumor; Day 36): 840.5 mm^3
- RT4 Tumor Volumes, Average (RT4 tumor; Day 42): 1024.5 mm^3
- RT-112 Tumor Volumes, Average (RT-112 tumor; Day 1): 175.7 mm^3
- RT-112 Tumor Volumes, Average (RT-112 tumor; Day 8): 245.1 mm^3
- RT-112 Tumor Volumes, Average (RT-112 tumor; Day 15): 360.8 mm^3
- RT-112 Tumor Volumes, Average (RT-112 tumor; Day 22): 578.8 mm^3
- RT-112 Tumor Volumes, Average (RT-112 tumor; Day 29): 739.4 mm^3
- RT-112 Tumor Volumes, Average (RT-112 tumor; Day 36): 881.6 mm^3
- RT-112 Tumor Volumes, Average (RT-112 tumor; Day 42): 1115.9 mm^3
- BFTC-905 Tumor Volumes, Average (BFTC-905 tumor; Day 0): 192.1 mm^3
- BFTC-905 Tumor Volumes, Average (BFTC-905 tumor; Day 3): 211.4 mm^3
- BFTC-905 Tumor Volumes, Average (BFTC-905 tumor; Day 7): 243.4 mm^3
- BFTC-905 Tumor Volumes, Average (BFTC-905 tumor; Day 14): 286.7 mm^3
- BFTC-905 Tumor Volumes, Average (BFTC-905 tumor; Day 21): 395.0 mm^3
- BFTC-905 Tumor Volumes, Average (BFTC-905 tumor; Day 28): 511.6 mm^3
- BFTC-905 Tumor Volumes, Average (BFTC-905 tumor; Day 35): 615.5 mm^3
- BFTC-905 Tumor Volumes, Average (BFTC-905 tumor; Day 42): 829.6 mm^3

Compound: FGF-1: recombinant human FGF ligand, known to induce FGFR degradation
- FGFR-3 signal compared with Time 0 hr (Group 1) ([1]; Time 1 hr): similar
- FGFR-3 signal compared with Time 0 hr (Group 1) ([1]; Time 4 hr): significantly lower
- FGFR-3 signal compared with Time 0 hr (Group 1) ([1]; Time 8 hr): significantly lower
- FGFR-3 signal compared with Time 0 hr (Group 1) ([1]; Time 24 hr): nearly absent
- tumor cell growth on stimulation (RT112 cells): doubled
